Like-named read-outs stand apart in the source and are kept apart here. Marks after values point to notes of the source that are not given here.
Legend:
convulsant metrazol [1] = assay: scMET, rats p.o. (Test 3); type: in vivo; conditions: Test 3, rats p.o.
Method: Subcutaneous Metrazol Seizure Threshold Test (scMET): Subcutaneous injection of the convulsant metrazol produces clonic seizures in laboratory animals. […] Animals were pretreated with various doses of the test compound given by i.p. injection. At the previously determined Time to Peak Effect (TPE) of the test compound, the dose of metrazol which will produce convulsions in 97% of animals (CD97: 85 mg/kg in mice) was injected into a loose fold of skin in the midline of the neck. The animals were placed in isolation cages to minimize stress and observed for the next 30 minutes for the presence or absence of a seizure. An episode of clonic spasms, approximately […], of the fore and/or hind limbs, jaws, or vibrissae is taken as the end point.
Rats received test compounds orally.

rats [2] = assay: Neurotoxicity, rats p.o. (Test 2 and Test 3)
From the text: Acute Toxicity—Minimal Motor Impairment (MMI): To assess a compound's undesirable side effects (toxicity), animals were monitored for overt signs of impaired neurological or muscular function.
Groups of at least 8 rats received various doses of the candidate compound until at least two points were established between the limits of 100 percent protection or toxicity and zero percent protection or minimal toxicity. The 95 percent confidence limits, slopes of the regression lines and standard errors of the slopes were calculated for each quantitative determination. Rats received test compounds orally.
This secondary evaluation determines the time to peak effect (TPE), neurotoxicity, median effective dose (ED50) and biological response.

MES-induced seizures [3] = assay: Maximal Electroshock Test (MES), Test 1, mice i.p.; type: in vivo; conditions: for MES (number of animal protected/number of animal tested): mice, i.p.
MES-induced seizures [4] = assay: animal or person; type: in vivo, rats
convulsant metrazol [5] = assay: Subcutaneous Metrazol Seizure Threshold Test (scMET), Test 1, mice i.p.; type: in vivo; conditions: Mus musculus, ip, symbol = dose with activity
[6] = In vitro plasma stability; type: in vitro ADME; conditions: rat plasma, 37° C., 30 minutes incubation, HPLC
From the text: The compounds were extracted back into acetonitrile with rigorous vortex.

rats [7] = conditions: rat, in vivo, po
[8] = system: carrageenan-induced rat paw edema; assay: Carrageenan-induced rat paw edema; type: in vivo; conditions: 75 mg/kg equivalent dose of aspirin, p.o.
[9] = rat, in vivo, po, 35 mg/kg
[10] = Test 2, rats p.o., 30 mg/kg, 0.50 h
[11] = Test 2, rats p.o., 30 mg/kg, 1.00 h
[12] = Test 2, rats p.o., 30 mg/kg, 2.00 h
[13] = Test 2, rats p.o., 30 mg/kg, 4.00 h

Nc1nc(NC(=O)OCCSSCCO)nnc1-c1cccc(Cl)c1Cl [I-A1-PD4]
ScMET (50 mg/kg) (number of animal protected/number of animal tested) (convulsant metrazol [1]; 0.25 h): 1/4^f
ScMET (50 mg/kg) (number of animal protected/number of animal tested) (convulsant metrazol [1]; 0.5 h): 0/4
ScMET (50 mg/kg) (number of animal protected/number of animal tested) (convulsant metrazol [1]; 1.0 h): 2/4
ScMET (50 mg/kg) (number of animal protected/number of animal tested) (convulsant metrazol [1]; 2.0 h): 1/4^g
ScMET (50 mg/kg) (number of animal protected/number of animal tested) (convulsant metrazol [1]; 4.0 h): 0/4
toxicity (in words) (mice; Test 1, mice i.p.): no or mild toxicity
Rotorod Toxicity 0.5 h (mice; mice, i.p., 0.5 h, symbol = dose with toxicity): — (— = no activity or no toxicity at 300 mg/kg)
Rotorod Toxicity 4.0 h (mice; mice, i.p., 4.0 h, symbol = dose with toxicity): — (— = no activity or no toxicity at 300 mg/kg)
Toxicity (number of animals exhibiting toxicity/number of animals tested) (rats [2]; [10]): 0/4
Toxicity (number of animals exhibiting toxicity/number of animals tested) (rats [2]; [11]): 0/4
Toxicity (number of animals exhibiting toxicity/number of animals tested) (rats [2]; [12]): 0/4
Toxicity (number of animals exhibiting toxicity/number of animals tested) (rats [2]; [13]): 0/4
Toxicity (number of animals exhibiting toxicity/number of animals tested) (rats [2]; Test 3, rats p.o., 100 mg/kg, 0.25 h): 0/4 (100)
Toxicity (number of animals exhibiting toxicity/number of animals tested) (rats [2]; Test 3, rats p.o., 100 mg/kg, 0.5 h): 0/4 (100)
Toxicity (number of animals exhibiting toxicity/number of animals tested) (rats [2]; Test 3, rats p.o., 100 mg/kg, 1.0 h): 0/4 (100)
Toxicity (number of animals exhibiting toxicity/number of animals tested) (rats [2]; Test 3, rats p.o., 100 mg/kg, 2.0 h): 0/4 (100)
activity in MES model (in words) (MES-induced seizures [3]; Test 1, mice i.p.): active in MES
MES (number of animal protected/number of animal tested) (MES-induced seizures [3]; 0.5 h, 100 mg/kg (++)): (1/7)
MES (number of animal protected/number of animal tested) (MES-induced seizures [3]; 0.5 h, 300 mg/kg (+)): (2/5)
MES (number of animal protected/number of animal tested) (MES-induced seizures [3]; 4.0 h, 30 mg/kg (+++)): (1/1)
MES (number of animal protected/number of animal tested) (MES-induced seizures [3]; 4.0 h, 100 mg/kg (++)): (3/3)
MES (number of animal protected/number of animal tested) (MES-induced seizures [3]; 4.0 h, 300 mg/kg (+)): (1/1)
ED50 (MES-induced seizures [4]; Rattus norvegicus, po, MES model, rats p.o., at time of peak effect): 6.55 mg/kg
MES (number of animal protected/number of animal tested) (MES-induced seizures [4]; [10]): 0/4
MES (number of animal protected/number of animal tested) (MES-induced seizures [4]; [11]): 1/4
MES (number of animal protected/number of animal tested) (MES-induced seizures [4]; [12]): 3/4
MES (number of animal protected/number of animal tested) (MES-induced seizures [4]; [13]): 4/4
MES (number of animal protected/number of animal tested) (MES-induced seizures [4]; Test 3 ED50 quantification, rats p.o., 4 h, 1.9 mg/kg): 0/8
MES (number of animal protected/number of animal tested) (MES-induced seizures [4]; Test 3 ED50 quantification, rats p.o., 4 h, 3.8 mg/kg): 4/8
MES (number of animal protected/number of animal tested) (MES-induced seizures [4]; Test 3 ED50 quantification, rats p.o., 4 h, 7.5 mg/kg): 4/8
MES (number of animal protected/number of animal tested) (MES-induced seizures [4]; Test 3 ED50 quantification, rats p.o., 4 h, 15 mg/kg): 7/8
MES (number of animal protected/number of animal tested) (MES-induced seizures [4]; Test 3 ED50 quantification, rats p.o., 4 h, 30 mg/kg): 7/8
MES (number of animal protected/number of animal tested) (MES-induced seizures [4]; Test 3 time to peak effect, rats p.o., 10 mg/kg, 4.0 h): 4/4
MES (number of animal protected/number of animal tested) (MES-induced seizures [4]; Test 3 time to peak effect, rats p.o., 10 mg/kg, 6.0 h): 3/4
MES (number of animal protected/number of animal tested) (MES-induced seizures [4]; Test 3 time to peak effect, rats p.o., 10 mg/kg, 8.0 h): 2/4
MES (number of animal protected/number of animal tested) (MES-induced seizures [4]; Test 3 time to peak effect, rats p.o., 10 mg/kg, 24 h): 0/4
MES (number of animal protected/number of animal tested) (MES-induced seizures [4]; Test 3 time to peak effect, rats p.o., 30 mg/kg, 0.25 h): 2/4
MES (number of animal protected/number of animal tested) (MES-induced seizures [4]; Test 3 time to peak effect, rats p.o., 30 mg/kg, 0.5 h): 2/4
MES (number of animal protected/number of animal tested) (MES-induced seizures [4]; Test 3 time to peak effect, rats p.o., 30 mg/kg, 1.0 h): 2/4
MES (number of animal protected/number of animal tested) (MES-induced seizures [4]; Test 3 time to peak effect, rats p.o., 30 mg/kg, 2.0 h): 2/4
MES (number of animal protected/number of animal tested) (MES-induced seizures [4]; Test 3 time to peak effect, rats p.o., 30 mg/kg, 4.0 h): 4/4
minimal effective dose (convulsant metrazol [5]; 0.5 h, read-out: ScMET 0.5 h, mice, i.p., 0.5 h): > 300 mg/kg
minimal effective dose (convulsant metrazol [5]; 4 h, read-out: ScMET 4.0 h, mice, i.p., 4.0 h): > 300 mg/kg

CC(=O)Oc1ccccc1C(=O)NC(=O)OCCSSCCO[N+](=O)[O-] [I-C1-NOPD5A]
release of parent drug / conversion to salicylate (in words) [6]: converting to the expected metabolite (salicylate)
ulcers (in words) (rats [7]; 200 mg/kg): none of the animals treated with the test compounds showed any signs of development of ulcers
anti-inflammatory activity (in words) [8]: negligible anti-inflammatory activity

CC(=O)Oc1ccccc1C(=O)NCCSSCCO[N+](=O)[O-] [I-C1-NOPD6]
ulcers (in words) (rats [7]; 100 mg/kg): none of the animals treated with the test compounds showed any signs of development of ulcers
prodrug or salicylate found in plasma (in words) [9]: neither the prodrug nor the salicylate was found in the plasma

Reference: US8354455B2, “Prodrugs containing novel bio-cleavable linkers” (Piramal Enterprises Limited and Apparao Satyam, priority 2004, dated 2013)
